Patent publication US7893263B2, “Structural analogs of corosolic acid having anti-diabetic and anti-inflammatory properties” (Laila Nutraceuticals, priority 2004, dated 2011)

Legend:
Albino wistar rats = experiment: Hypoglycemic activity: inhibition of sucrose-induced raise in serum glucose levels (SGL); type: in vivo; design: Inhibitory rate (serum glucose level inhibitory rate): unit not given here; conditions: oral dose 1 mg/Kg; for SGL (mean ± SE): 20 mL/kg of 20% sucrose orally after 30 minutes, blood drawn one hour after treatment, groups of six rats; for Inhibitory rate (serum glucose level inhibitory rate): mean increase in serum glucose levels of treated vs control groups
Experimental: Hypoglycemic activity: Hypoglycemic activity was tested by the inhibition of sucrose-induced raise in serum glucose levels (SGL), by the test substances in Albino wistar rats. The procedure involves fasting the rats for overnight at ad libitum water, numbered weighed and randomly divided into groups of six animals each. Prior to treatment blood samples were drawn from sinus orbital plexus of all animals using heparin coated glass capillaries under mild ether anesthesia. The blood samples were tested for serum glucose levels using enzymatic GOD/POD method. […] SGL=(test OD/Standard OD)×100 and the results were expressed in mg/dL. All the groups were treated orally with corresponding test substances, standard, vehicle (5% gum acacia). After 30 minutes, all animals were given 20 mL/kg of 20% sucrose solution orally using gastric tube. One hour after treatment, blood samples were drawn again under mild ether anesthesia and tested for serum glucose levels in a same procedure as described above for initial serum glucose estimation. The data was subjected to statistical treatment using t-test and inhibitory rate was calculated by comparing mean increase in serum glucose levels of control and treated groups. The corosolic acid analogs of this invention are found to show better hypoglycemic activity (Table 1; hypoglycemic activity is expressed in serum glucose level inhibitory rate values; higher the inhibitory rate value, higher is the activity) than the corosolic acid.

5-Lipoxygenase = 5-Lipoxygenase inhibitory activity, colorimetric method (ferric xylenol orange, linoleic acid); type: biochemical
Experimental: 5-Lipoxygenase activity: The corosolic acid analogs were screened for their 5-Lipoxygenase inhibitory potential using colorimetric method. The assay mixture contained 50 mM phosphate buffer pH 6.3, 5-Lipoxygenase, various concentrations of test substances in dimethyl sulphoxide and linoleic acid in a total volume of 0.5 mL, after 5 min incubation of above reaction mixture, 0.5 mL ferric xylenol orange reagent was added and OD was measured after two minutes at 585 nm using spectrophotometer. Controls were run along with test in a similar manner except using vehicle instead of test substance solution. Percent inhibition was calculated by comparing absorbance of test solution with that of control.
The corosolic acid analogs of this invention are found to show good 5-lipoxygenase activity (Table 2; 5-lipoxygenase activity is expressed in % of inhibition at 100 μM and 250 μM; higher the % inhibitory values, higher is the activity).

[1] = tested on: Brine shrimp (Artemia salina) nauplii; experiment: in vivo; conditions: 24 h at 37° C., 10 nauplii per vial
Experimental: Brine shrimp lethality: Brine shrimp (Artemia salina) nauplii were hatched using brine shrimp eggs in a conical shaped vessel (1 L), filled with sterile artificial sea water (prepared using sea salt 38 g/L and adjusted to pH 8.5 using 1 N NaOH) under constant aeration for 48 h. After hatching, 10 nauplii were drawn through a pepette and placed in each vial containing 4.5 mL brine solution and added various concentrations of drug solutions and volume was made upto 5 mL using brine solution and maintained at 37° C. for 24 h under the light of incandescent lamps and surviving larvae were counted. Each experiment was conducted along with control (vehicle treated), at various concentrations of the test substance in each set that contains 6 tubes and the average results are reported. The percentage lethality was determined by comparing the mean mortal larvae of test and control tubes. LC50 values were obtained from the plot of concentration (μg) vs. percentage lethality. Podophyllotoxin was used as a positive control.
The corosolic acid analogs of this invention are found to show significant brine shrimp lethality (Table 3; brine shrimp lethality is expressed in LC50 at μM concentration; lower the LC50 value, higher is the activity).

| Compound | SGL (mean ± SE) (Albino wistar rats) | Inhibitory rate (serum glucose level inhibitory rate) (Albino wistar rats) | % inhibition of 5-Lox activity (5-Lipoxygenase; 100 μM) | % inhibition of 5-Lox activity (5-Lipoxygenase; 250 μM) | LC50 [1] |
| --- | --- | --- | --- | --- | --- |
| 2-O-Acetylcorosolic acid and 3-O-acetylcorosolic acid [Compound 1] | 109.54 ± 2.80 mg/dL | 32.75 | 15.47% | 24.05% | 9.7 µM |
| 3-O-acetyl-11-keto-β-boswellic acid [AKBA, reference compound] |  |  | 17.45% | 25.3% |  |
| CC(=O)O[C@@H]1C[C@]2(C)[C@H]3CC=C4[C@@H]5[C@@H](C)[C@H](C)CC[C@]5(C(=O)O)CC[C@@]4(C)[C@]3(C)CC[C@H]2C(C)(C)[C@H]1OC(C)=O [Compound 2, 2,3-Di-O-acetylcorosolic acid] |  |  | 20.08% | 44.54% | 1.8 µM |
| CC1CCC2(C(=O)O)CCC3(C)C(=CCC4C5(C)CC(OC(=O)c6cccnc6)C(O)C(C)(C)C5CCC43C)C2C1C (stereo not shown) [Compound 3, 2-O-Nicotinoylcorosolic acid] | 115.86 ± 3.77 mg/dL | 13.9 | 28.54% | 53.19% | 86.6 µM |
| CC1CCC2(C(=O)O)CCC3(C)C(=CCC4C5(C)CC(OC(=O)CN)C(O)C(C)(C)C5CCC43C)C2C1C.Cl (stereo not shown) [Compound 4, 2-O-Glycylcorosolic acid hydrochloride] | 119.23 ± 9.58 mg/dL | 26.8 | 17.04% | 27.83% | 3.9 µM |
| CC(N)C(=O)OC1CC2(C)C(CCC3(C)C2CC=C2C4C(C)C(C)CCC4(C(=O)O)CCC23C)C(C)(C)C1O.Cl (stereo not shown) [Compound 5, 2-O-Alanylcorosolic acid hydrochloride] | 113.49 ± 4.11 mg/dL | 22.39 | 29.14% | 67.03% | 3.4 µM |
| COC(=O)C12CCC(C)C(C)C1C1=CCC3C4(C)CC(OC(=O)C=Cc5cc(OC)c(OC)c(OC)c5)C(O)C(C)(C)C4CCC3(C)C1(C)CC2 (stereo not shown) [Compound 6, Methyl 2-O-(3,4,5-trimethoxycinnamoyl)corosolate] | 114.15 ± 6.62 mg/dL | 21.94 |  | 13.47% | > 200 µM |
| CC1CCC2(C(=O)O)CCC3(C)C(=CCC4C5(C)CC6OS(=O)(=O)OC6C(C)(C)C5CCC43C)C2C1C (stereo not drawn) [Compound 7, 2α,3β-Dihydroxyurs-12-en-28-oic acid 2,3-cyclicsulphate] |  |  |  | 16.90% | 15 µM |
| C[C@H]1[C@H](C)CC[C@]2(C(N)=O)CC[C@]3(C)C(=CC[C@@H]4[C@@]5(C)C[C@@H](O)[C@H](O)C(C)(C)[C@@H]5CC[C@]43C)[C@H]12 [Compound 8, Corosolamide] | 110.14 ± 3.18 mg/dL | 18.15 | 26.13% | 51.29% | 29 µM |
| C[C@H]1[C@H](C)CC[C@]2(C(=O)Nc3ccccc3)CC[C@]3(C)C(=CC[C@@H]4[C@@]5(C)C[C@@H](O)[C@H](O)C(C)(C)[C@@H]5CC[C@]43C)[C@H]12 [Compound 9, N-Phenylcorosolamide] | 117.97 ± 0.37 mg/dL | 27.58 | 8.16% | 21.77% | > 100 µM |
| CC1CCC2(C(=O)NCCN)CCC3(C)C(=CCC4C5(C)CC(O)C(O)C(C)(C)C5CCC43C)C2C1C (stereo not shown) [Compound 10, N-(2-Aminoethyl)corosolamide] | 113.57 ± 3.80 mg/dL | 30.28 | 21.74% | 40.87% | 97.2 µM |
| CC1CCC2(C(=O)N3CCNCC3)CCC3(C)C(=CCC4C5(C)CC(O)C(O)C(C)(C)C5CCC43C)C2C1C (stereo not shown) [Compound 11, N-(Corosolyl)piperazine] | 107.88 ± 4.61 mg/dL | 19.83 | 35.42% | 64.99% | 9.2 µM |
| CC1CCC2(C(=O)NCCO)CCC3(C)C(=CCC4C5(C)CC(O)C(O)C(C)(C)C5CCC43C)C2C1C (stereo not shown) [Compound 12, N-(2-Hydroxyethyl)corosolamide] | 103.49 ± 7.12 mg/dL | 36.47 | 17.74% | 32.96% | > 100 µM |
| COC(=O)[C@]12CC[C@@H](C)[C@H](C)[C@H]1C1=CC[C@@H]3[C@@]4(C)C[C@@H](O)[C@H](O)C(C)(C)[C@@H]4CC[C@@]3(C)[C@]1(C)CC2 [Compound 13, Methyl corosolate] | 118.94 ± 8.61 mg/dL | 11.6 | 17.3% | 40.04% | 10.2 µM |
| COC(=O)[C@]12CC[C@@H](C)[C@H](C)[C@H]1C1=CC(=O)[C@@H]3[C@@]4(C)C[C@@H](O)[C@H](O)C(C)(C)[C@@H]4CC[C@@]3(C)[C@]1(C)CC2 [Compound 15, Methyl 11-ketocorosolate] | 120.79 ± 4.85 mg/dL | 17.4 |  | 25.09% | 40.9 µM |
| C[C@H]1[C@H](C)CC[C@]2(C(=O)O)CC[C@]3(C)C(=CC(=O)[C@@H]4[C@@]5(C)C[C@@H](O)[C@H](O)C(C)(C)[C@@H]5CC[C@]43C)[C@H]12 [Compound 17, 11-Ketocorosolic acid] | 120.90 ± 9.66 mg/dL | 25.78 |  |  |  |
| CC(=O)OC1CC2(C)C(CCC3(C)C2C(=O)C=C2C4C(C)C(C)CCC4(C(=O)O)CCC23C)C(C)(C)C1OC(C)=O (stereo not shown) [Compound 18, Diacetyl-11-ketocorosolic acid] |  |  |  |  | 87.7 µM |
| C[C@H]1[C@H](C)CC[C@]2(C(=O)O)CC[C@]3(C)C(=CC(=O)[C@@H]4[C@@]5(C)C[C@H]6OS(=O)(=O)O[C@@H]6C(C)(C)[C@@H]5CC[C@]43C)[C@H]12 [Compound 19, 2α,3β-Dihydroxyurs-12-en-11-one-28-oic acid 2,3-cyclicsulphate] | 129.16 ± 4.66 mg/dL | 11.67 |  | 11.81% | > 100 µM |
| C[C@H]1[C@H](C)CC[C@]2(C(N)=O)CC[C@]3(C)C(=CC(=O)[C@@H]4[C@@]5(C)C[C@@H](O)[C@H](O)C(C)(C)[C@@H]5CC[C@]43C)[C@H]12 [Compound 20, 11-Ketocorosolamide] | 142.81 ± 7.30 mg/dL | 12.33 | 18.57% | 42.79% | > 100 µM |
| C[C@H]1[C@H](C)CC[C@]2(C(N)=O)CC[C@]3(C)C(=CC(O)[C@@H]4[C@@]5(C)C[C@@H](O)[C@H](O)C(C)(C)[C@@H]5CC[C@]43C)[C@H]12 (stereo partly shown) [Compound 21, 11-Hydroxycorosolamide] | 121.57 ± 2.62 mg/dL | 25.37 | 25.57% | 50.83% | > 100 µM |
| COC(=O)C12CCC(C)C(C)C1C1=CC(O)C3C4(C)CC(O)C(O)C(C)(C)C4CCC3(C)C1(C)CC2 (stereo not shown) [Compound 22, Methyl 11-hydroxycorosolate] |  |  | 24.56% | 49.40% | 19.9 µM |
| CC(Cc1ccc(O)c(O)c1)C(C)Cc1ccc(O)c(O)c1 (stereo not shown) [NDGA, Nordihydroguaiaretic acid, reference compound] |  |  | 70.4% | 91.55% |  |
| Methyl diacetyl-11-ketocorosolate [Compound 16] |  |  |  | 3.82% | 82.3 µM |
| Methyl diacetylcorosolate [Compound 14] |  |  |  | 1.9% | 42.1 µM |
